# Measured values taken from patent US20240336566A1, “CRYSTALLINE FORMS OF A COMPOUND FOR THE TARGETED DEGRADATION OF THE ANDROGEN RECEPTOR” (Arvinas Operations, Inc., priority 2023, published 2024).
# Columns and labels:
# Format in all cases: physicochemical
# [1] = Co-crystal screen: XRPD post temperature cycling and post storage at 40° C./75% RH;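 on XRPD results, primary co-crystal screen post temperature cycling: value is the Compound A free base XRPD pattern number and 9 means a potential new one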; settings: for XRPD results, primary co-crystal screen post storage at 40° C./75% RH / XRPD results, primary co-crystal screen post temperature cycling: Compound A + 1.05 eq. co-former (= label); for XRPD form post storage at 40° C./75% RH: ca. 24 or ca. 30 hours
# [2] = Primary salt screen: XRPD post temperature cycling/evaporation, post drying and post storage at 40° C./75% RH; settings: post drying and 40° C./75% RH
# Description: • 30 mg samples of Compound A were weighed out into 2 mL screw cap sample vials for 96 experiments. To these, 200 μL of the appropriate solvent system was added to dissolve the material or form a slurry. See Table 16 for the solvent systems selected for the primary salt screen.
# • 1.05 eq. of solid counterions were weighed into six separate vials each and 1 molar stock solutions were prepared for liquid counterions in 5 mL of THF. See Table 17 for selected counterions and mass/volume needed for 1.05 eq. additions. • 100 μL of the appropriate solvent was added to the solid counterions.
# The solution/slurry of counterion was added to the solution/slurry of the free base material.
# • The samples were placed in an incubator shaker to temperature cycle between ambient and 40° C. over 4 hour cycles. • After ca. 72 hours of temperature cycling, observations were noted, see Table 19.
# • Where slurries were obtained, the solids were isolated via centrifugation. Solids and gels were analyzed by XRPD.
# Any samples that were clear solutions after temperature cycling were left to evaporate at ambient conditions. See Table 20 for observations made after evaporation. Solids obtained through evaporation were analyzed by XRPD.
# • The samples obtained from temperature cycling were dried under vacuum at 40° C. for ca. 20 hours while the samples obtained from evaporation were dried under vacuum at 40° C. for ca. 4 hours. […]
# [3] = 7-day stability assessment (appearance, HPLC, XRPD); settings: for Reported Purity / Total impurities: HPLC; for purity retained after stability storage (HPLC): after 7 days at 40° C./75% RH (open vial), 80° C. (closed vial), ambient light (closed vial)
# Description: The material was gently ground to release any agglomerates and loaded onto a multi-well plate with Kapton or Mylar polymer film to support the sample. […] Data were visualized and images generated using the HighScore Plus 4.7 desktop application (PANalytical, 2θ17).
# They all remained white or off-white solids. • XRPD analysis determined the patterns were retained.
# [4] = Thermodynamic solubility determination in buffers (HPLC)
# From the text: No clear solubility advantage of the salts was noted over Compound A free base.
# [5] = Primary crystallization screen: XRPD before and after drying at 40° C.; settings: dried at 40° C. for approximately 18 h
# Description: • 34×40 mg of Compound A was weighed into vials before the selected solvents were added to prepare slurries, where possible. See Table 29 for a list of solvent systems used and the volume of solvent used. • Stirrer bars were added to the vials, before the vials were sealed and temperature cycled with stirring between 5° C. and 40° C. The heating rate was 0.1° C./min and the samples were held at 5° C. and 40° C. for 2 hours. • After temperature cycling for 4 days, observations were made (see Table 29). Slurries were centrifuge filtered and the solids were analyzed by XRPD • The solids were dried at 40° C. for approximately 18 h before being re-analyzed by XRPD. • Saturated solutions were then split into 3 vials for the following experiments • Evaporation at ambient temperature • Cooling (5° C.). • Where no solids were obtained after 72 hours, the samples were moved to the freezer at −20° C. for further cooling. • Where no solids were obtained from further cooling, the samples were allowed to evaporate at ambient temperature. • Anti-solvent addition at ambient temperature. • Where no solids were obtained after 72 hours the samples were moved to the freezer at −20° C. to encourage crystallization. • Where no solids were obtained from cooling, the samples were allowed to evaporate at ambient temperature.
# [6] = input material before storage (baseline of the stability assessment)
# [7] = Buffer pH 1.2, 25° C., cf concentration of free base, listed as Compound A Besylate
# [8] = Buffer pH 3.0, 25° C., LOQ 0.00025 mg/mL
# [9] = Buffer pH 4.0, 25° C., LOQ 0.00025 mg/mL
# [10] = 7 days at 40° C./75% RH (open vial)
# [11] = 7 days at Ambient light (closed vial)
# [12] = before stability testing (condition N/A)
# [13] = Buffer pH 1.2, 25° C., cf concentration of free base, listed as Compound A Phosphate
# [14] = Buffer pH 1.2, 25° C., cf concentration of free base, listed as Compound A Tosylate
# [15] = buffer, 25 °C, pH 3, aqueous buffer, thermodynamic from solid, Buffer pH 3.0, LOQ 0.00025 mg/mL
structure (smiles),measurement,setting,value
NC(N)=O [Urea],"XRPD results, primary co-crystal screen post storage at 40° C./75% RH","[1]; 1,4-Dioxane",4
same,"XRPD results, primary co-crystal screen post temperature cycling","[1]; 1,4-Dioxane",9
same,"XRPD results, primary co-crystal screen post storage at 40° C./75% RH",[1]; DCM:Methanol (50:50 % v/v),2
same,"XRPD results, primary co-crystal screen post temperature cycling",[1]; DCM:Methanol (50:50 % v/v),2
same,"XRPD results, primary co-crystal screen post storage at 40° C./75% RH",[1]; THF,1
same,"XRPD results, primary co-crystal screen post temperature cycling",[1]; THF,1
COc1cc(O[C@H]2C(C)(C)[C@H](NC(=O)c3ccc(N4CCC(CN5CCN(c6ccc(C(=O)N[C@H]7CCC(=O)NC7=O)c(F)c6)CC5)CC4)cc3)C2(C)C)ccc1C#N [besylate Pattern 1],assessment of salt form in the primary salt screen,[2],stable hydrates
same,Reported Purity,[3]; after 7 days at 40° C./75% RH,97.31 Area %
same,Total impurities,[3]; after 7 days at 40° C./75% RH,2.69 Area %
same,Reported Purity,[3]; after 7 days at 80° C.,97.56 Area %
same,Total impurities,[3]; after 7 days at 80° C.,2.44 Area %
same,Reported Purity,[3]; after 7 days at ambient,97.17 Area %
same,Total impurities,[3]; after 7 days at ambient,2.83 Area %
same,Reported Purity,[3]; [6],97.33 Area %
same,Total impurities,[3]; [6],2.67 Area %
same,purity retained after stability storage (HPLC),[3],> 97 % relative area
same,0 Hr Solubility,[4]; [7],13300 ng/mL
same,4 Hr Solubility,[4]; [7],7300 ng/mL
same,24 Hr Solubility,[4]; [7],9300 ng/mL
same,0 Hr Solubility,[4]; [8],<250 ng/mL
same,4 Hr Solubility,[4]; [8],<250 ng/mL
same,24 Hr Solubility,[4]; [8],<250 ng/mL
same,0 Hr Solubility,[4]; [9],<250 ng/mL
same,4 Hr Solubility,[4]; [9],<250 ng/mL
same,24 Hr Solubility,"[4]; Buffer pH 4.0, 25° C., LOQ 0.00025 mg/mL, listed as Compound A Besylate",< 250 ng/mL
COc1cc(O[C@H]2C(C)(C)[C@H](NC(=O)c3ccc(N4CCC(CN5CCN(c6ccc(C(=O)N[C@H]7CCC(=O)NC7=O)c(F)c6)CC5)CC4)cc3)C2(C)C)ccc1C#N [free base Pattern 2],HPLC purity,[3]; [10],98.37 % relative area
same,XRPD after stability storage,[3]; [10],No change
same,HPLC purity,[3]; 7 days at 80° C. (closed vial),98.33 % relative area
same,XRPD after stability storage,[3]; 7 days at 80° C. (closed vial),No change
same,HPLC purity,[3]; [11],98.27 % relative area
same,XRPD after stability storage,[3]; [11],No change
same,Reported Purity,[3]; after 7 days at 40° C./75% RH,98.37 Area %
same,Total impurities,[3]; after 7 days at 40° C./75% RH,1.63 Area %
same,Reported Purity,[3]; after 7 days at 80° C.,98.33 Area %
same,Total impurities,[3]; after 7 days at 80° C.,1.67 Area %
same,Reported Purity,[3]; after 7 days at ambient,98.27 Area %
same,Total impurities,[3]; after 7 days at ambient,1.73 Area %
same,Reported Purity,[3]; [6],98.39 Area %
same,Total impurities,[3]; [6],1.61 Area %
same,purity retained after stability storage (HPLC),[3],> 98 % relative area
same,HPLC purity,[3]; [12],98.39 % relative area
COc1cc(O[C@H]2C(C)(C)[C@H](NC(=O)c3ccc(N4CCC(CN5CCN(c6ccc(C(=O)N[C@H]7CCC(=O)NC7=O)c(F)c6)CC5)CC4)cc3)C2(C)C)ccc1C#N [free base Pattern 5],XRPD form upon drying,[5],converted to Pattern 8
COc1cc(O[C@H]2C(C)(C)[C@H](NC(=O)c3ccc(N4CCC(CN5CCN(c6ccc(C(=O)N[C@H]7CCC(=O)NC7=O)c(F)c6)CC5)CC4)cc3)C2(C)C)ccc1C#N [free base Pattern 9],XRPD form post storage at 40° C./75% RH,[1],converts to Pattern 4
same,XRPD form post storage at 40° C./75% RH,[1]; listed as Pattern 9,converted to free base Pattern 4
COc1cc(O[C@H]2C(C)(C)[C@H](NC(=O)c3ccc(N4CCC(CN5CCN(c6ccc(C(=O)N[C@H]7CCC(=O)NC7=O)c(F)c6)CC5)CC4)cc3)C2(C)C)ccc1C#N [phosphate Pattern 1],assessment of salt form in the primary salt screen,[2],stable hydrates
same,0 Hr Solubility,[4]; [13],5900 ng/mL
same,4 Hr Solubility,[4]; [13],29100 ng/mL
same,24 Hr Solubility,[4]; [13],30600 ng/mL
same,0 Hr Solubility,[4]; [8],<250 ng/mL
same,4 Hr Solubility,[4]; [8],<250 ng/mL
same,24 Hr Solubility,[4]; [8],<250 ng/mL
same,0 Hr Solubility,[4]; [9],<250 ng/mL
same,4 Hr Solubility,[4]; [9],<250 ng/mL
same,24 Hr Solubility,"[4]; Buffer pH 4.0, 25° C., LOQ 0.00025 mg/mL, listed as Compound A Phosphate",<250 ng/mL
same,thermodynamic solubility,"[4]; pH 1.2, after 24 hours, 25° C., as concentration of Compound A free base",0.0306 mg/mL
COc1cc(O[C@H]2C(C)(C)[C@H](NC(=O)c3ccc(N4CCC(CN5CCN(c6ccc(C(=O)N[C@H]7CCC(=O)NC7=O)c(F)c6)CC5)CC4)cc3)C2(C)C)ccc1C#N [tosylate Pattern 1],assessment of salt form in the primary salt screen,[2],stable hydrates
same,HPLC purity,[3]; [10],97.30 % relative area
same,Reported Purity,[3]; after 7 days at 80° C.,96.76 Area %
same,Total impurities,[3]; after 7 days at 80° C.,3.24 Area %
same,Reported Purity,[3]; after 7 days at ambient,97.09 Area %
same,Total impurities,[3]; after 7 days at ambient,2.91 Area %
same,Total impurities (HPLC),[3]; after 7 days at 40° C./75% RH,2.70 Rel. Area %
same,purity retained after stability storage (HPLC),[3],> 96 % relative area
same,XRPD pattern after stability storage,[3]; after 7 days at each stability condition,gained an additional peak
same,Total impurities (HPLC),[3]; before stability testing,2.56 Rel. Area %
same,HPLC purity,[3]; [12],97.44 % relative area
same,0 Hr Solubility,[4]; [14],12200 ng/mL
same,4 Hr Solubility,[4]; [14],15400 ng/mL
same,24 Hr Solubility,[4]; [14],6300 ng/mL
same,0 Hr Solubility,[4]; [9],<250 ng/mL
same,4 Hr Solubility,[4]; [9],<250 ng/mL
same,24 Hr Solubility,"[4]; Buffer pH 4.0, 25° C., LOQ 0.00025 mg/mL, listed as Compound A Tosylate",<250 ng/mL
same,solubility at 0 h,[4]; [15],< 0.25 µg/mL
same,solubility at 4 h,[4]; [15],< 0.25 µg/mL
same,solubility at 24 h,[4]; [15],< 0.25 µg/mL
